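Step 1: Grow cells in 96-well plates. Step 2: Expose to compound for 48 hours at 5 concentrations. Step 3: Interpolate endpoints linearly; if unreached, use highest concentration. GI50 = concentration required for 50% inhibition of growth. The concentration for full growth arrest is given as TGI.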
What was measured:
Assay in all cases: inhibition of tumour cell growth, NCI panel, 48 h
786-0 renal = test system: 786-0 renal
A498 renal = test system: A498 renal
A549 NSCLC = test system: A549 NSCLC
CAKI-1 renal = test system: CAKI-1 renal
HCC-2998 colon = test system: HCC-2998 colon
HOP-62 NSCLC = test system: HOP-62 NSCLC
MALME-3M melanoma = test system: MALME-3M melanoma
NCI-H460 lung = test system: NCI-H460 lung
RPMI-8226 leukemia = test system: RPMI-8226 leukemia
SW-620 colon = test system: SW-620 colon

Row | SMILES | GI50 (786-0 renal) [µM] | TGI (786-0 renal) [µM] | GI50 (A498 renal) [µM] | TGI (A498 renal) [µM] | GI50 (A549 NSCLC) [µM] | TGI (A549 NSCLC) [µM] | GI50 (CAKI-1 renal) [µM] | TGI (CAKI-1 renal) [µM] | GI50 (HCC-2998 colon) [µM] | TGI (HCC-2998 colon) [µM] | GI50 (HOP-62 NSCLC) [µM] | TGI (HOP-62 NSCLC) [µM] | GI50 (MALME-3M melanoma) [µM] | TGI (MALME-3M melanoma) [µM] | GI50 (NCI-H460 lung) [µM] | TGI (NCI-H460 lung) [µM] | GI50 (RPMI-8226 leukemia) [µM] | TGI (RPMI-8226 leukemia) [µM] | GI50 (SW-620 colon) [µM] | TGI (SW-620 colon) [µM]
1 | Cc1cc(-c2ccco2)cc(C)c1/C=C/c1cncc(-c2nn[nH]n2)c1 | > 25 | > 25 | > 25 | > 25 | > 25 | > 25 | > 25 | > 25 | > 25 | > 25 | > 25 | > 25 | > 25 | > 25 | > 25 | > 25 | > 25 | > 25 | > 25 | > 25
2 | O=C1c2ccoc2C(=O)c2oc(=O)ccc21 | – | 30.8 | – | > 85.9 | – | 42 | – | > 62.2 | – | > 59 | – | > 61.1 | – | 7.84 | – | 37.1 | – | 22.2 | – | 11.5
3 | COc1cccc(/C=C2/S/C(=N/Nc3nc(C)c(C(C)=O)s3)NC2=O)c1O | – | > 100 | – | > 100 | – | > 100 | – | > 100 | – | > 100 | – | > 100 | – | 88.2 | – | > 100 | – | 84.6 | – | > 100
4 | COc1cccc(N2C(=O)C3CC(CC(C)(C)C)c4c([nH]c5ccccc45)C3C2=O)c1 (configuration not stated) | – | > 10 | – | > 10 | – | > 10 | – | > 10 | – | > 10 | – | > 10 | – | > 10 | – | > 10 | – | > 10 | – | > 10
5 | COC(=O)C1=Nc2ccc(F)cc2/C1=C/c1sc(=S)[nH]c1O | 0.122 | 15.1 | 0.202 | 0.942 | 0.254 | > 100 | 0.097 | 7 | 0.41 | 12.1 | 0.18 | 18.7 | 0.191 | 29 | 0.0804 | 10.1 | 0.305 | 3.92 | 0.0499 | > 100
6 | Cc1ccc(-c2nc(C(Cl)Cl)nc3cc(C)nn23)cc1 | > 100 | > 100 | 1.75 | 4.7 | 1.33 | 6.21 | 1.59 | 5.42 | 1.18 | 2.59 | 1.31 | 8.58 | – | – | 0.515 | 3.01 | 5.02 | > 100 | – | –
7 | COc1ncc2cc1NS(=O)(=O)c1cccc(c1)C(=O)NCC1=CC=C(S1)c1ncnc3c1SC2=C3C | 0.31 | 2.74 | 0.188 | 0.548 | 0.158 | 0.805 | 0.0795 | 10.3 | 0.203 | 0.574 | 0.238 | 4.1 | 0.302 | 3.09 | 0.37 | 2.55 | 0.202 | 0.588 | 0.49 | 3.31
8 | CCC1=C(c2ccc(OC)cc2)CC[C@]2(CCNC2=O)[C@@H]1C | – | > 100 | – | > 100 | – | > 100 | – | > 89.7 | – | > 65.3 | – | > 100 | – | 67.4 | – | > 85.9 | – | 45.7 | – | > 100
9 | Cc1cc2c3c(c1)CCCN3CCC2 | – | > 10 | – | > 10 | – | > 10 | – | > 10 | – | > 10 | – | > 10 | – | > 10 | – | > 10 | – | > 10 | – | > 10
10 | CC(C)C/C(=N\NC(=O)c1ccncc1)c1cc(Cl)ccc1O | 0.412 | 11.8 | 2.12 | 45.7 | 0.498 | > 42.6 | 0.213 | 12.6 | 0.27 | – | 0.465 | 64.8 | 1.65 | 16.7 | 0.127 | 31.8 | 0.461 | > 50.7 | 0.677 | > 100
11 | C1=C(c2ccccc2)C(OC2Oc3ccccc3C=C2c2ccccc2)Oc2ccccc21 (configuration not stated) | – | > 100 | – | > 100 | – | > 100 | – | > 100 | – | > 100 | – | > 100 | – | > 100 | – | > 100 | – | > 100 | – | > 100
12 | O=C(O)C1=C(C(=O)O)Oc2ccccc2O1 | – | > 100 | – | > 100 | – | > 100 | – | > 100 | – | > 100 | – | > 100 | – | > 100 | – | > 100 | – | – | – | > 100
13 | COc1cccc2c1[C@H]1OC(=O)NC1CCCCC2 (some centres not stated) | – | > 100 | – | > 100 | – | > 100 | – | > 100 | – | > 100 | – | > 100 | – | > 100 | – | > 100 | – | > 100 | – | > 100
14 | O=C(/C=C/c1cccs1)c1ccc([N+](=O)[O-])cc1 | – | > 100 | – | > 100 | – | > 100 | – | > 100 | – | > 100 | – | > 100 | – | > 100 | – | > 100 | – | > 100 | – | > 100
15 | CCN(CC)Cc1cc(Nc2cc(C(F)(F)F)c(C#N)c3nc4ccccc4n23)ccc1O | 2.57 | 9.98 | 1.44 | 5.85 | 3.17 | 12.5 | 1.77 | 11.2 | 2.85 | 15.2 | 3.05 | 11.4 | 1.19 | 5.82 | 1.59 | 10.7 | 0.812 | 4.96 | 2.61 | 10.2
16 | Nc1ncnc2c1ncn2CCOC(c1ccccc1)P(=O)(O)O (configuration not stated) | – | > 100 | – | > 100 | – | > 100 | – | > 100 | – | > 100 | – | – | – | > 100 | – | > 100 | – | – | – | > 100
17 | N#Cc1cccc(C2C3=C(COC3=O)N(CCO)c3cc4c(cc32)CCC4)c1 (configuration not stated) | 0.18 | > 50 | 0.0411 | 0.303 | 0.23 | > 50 | 0.109 | > 50 | 0.186 | > 30.4 | 0.25 | > 50 | 0.173 | > 50 | 0.16 | 5.19 | 0.212 | > 28.1 | 0.153 | > 50

Reference: PubChem BioAssay (NCI)
